The test relates to L1210 leukemia ip in BDF1 mice, survival T/C. The experiment in a line: NCI In Vivo Anticancer Drug Screen. Data for tumor model L1210 Leukemia (intraperitoneal) in B6D2F1 (BDF1) mice. Particulars: endpoint: mean survival time, higher = longer survival. The gist of the method:
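Survival endpoint. Drug-treated group vs vehicle group, expressed as T divided by C. Tumor passaged by transplantation.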

The mark [1] stands for this setting: dose: 50.0 mg/kg/injection, schedule: Q01DX001 (ip), vehicle: carboxymethylcellulose (CMC).
Setting [2] is: dose: 100.0 mg/kg/injection, schedule: Q01DX001 (ip), vehicle: carboxymethylcellulose (CMC).
Where [3] appears, read: dose: 200.0 mg/kg/injection, schedule: Q01DX001 (ip), vehicle: carboxymethylcellulose (CMC).
Where [4] appears, read: dose: 400.0 mg/kg/injection, schedule: Q01DX001 (ip), vehicle: carboxymethylcellulose (CMC).
[5] abbreviates: dose: 6.25 mg/kg/injection, schedule: Q01DX009 (ip), vehicle: saline.
The mark [6] stands for this setting: dose: 12.5 mg/kg/injection, schedule: Q01DX009 (ip), vehicle: saline.
The mark [7] stands for this setting: dose: 25.0 mg/kg/injection, schedule: Q01DX009 (ip), vehicle: saline.
The mark [8] stands for this setting: dose: 50.0 mg/kg/injection, schedule: Q01DX009 (ip), vehicle: saline.
Where [9] appears, read: dose: 100.0 mg/kg/injection, schedule: Q04DX003 (ip), vehicle: saline with Tween-80.
Setting [10] is: dose: 200.0 mg/kg/injection, schedule: Q04DX003 (ip), vehicle: saline with Tween-80.

Structures are written as SMILES. Inconclusive results and toxic doses are left out.

Take `O=C1CCC(=O)N1c1ccc(Br)cc1`: the T/C runs as follows: under setting [1], 102 % of control; under setting [2], 102 % of control; under setting [3], 98 % of control; under setting [4], 98 % of control.

On to `C=C(C)C(Br)=C(C)C`, for which, for the setting “dose: 100.0 mg/kg/injection, schedule: Q01DX001 (ip), vehicle: DMSO”, the T/C was 96 % of control.

As for `COC(=O)[C@@H]1c2cc3c(c(O)c2[C@@H](OC)C[C@@]1(C)O)C(=O)c1c(O)cc2c(c1C3=O)OC1O[C@@]2(C)[C@H](O)[C@@H](N(C)C)[C@@H]1O`, the T/C was 104 % of control (dose: 3.12 mg/kg/injection, schedule: Q01DX015 (ip), vehicle: carboxymethylcellulose (CMC)); 106 % of control under setting [5]; 108 % of control (dose: 6.25 mg/kg/injection, schedule: Q01DX015 (ip), vehicle: carboxymethylcellulose (CMC)); 112 % of control under setting [6]; 120 % of control (dose: 12.5 mg/kg/injection, schedule: Q01DX015 (ip), vehicle: carboxymethylcellulose (CMC)); 109 % of control under setting [7]. Moreover, the T/C under setting [1] was 105 % of control; the T/C under setting [8] is 112 % of control; the T/C (dose: 50.0 mg/kg/injection, schedule: Q01DX015 (ip), vehicle: carboxymethylcellulose (CMC)) was 122 % of control; the T/C under setting [2] is 117 % of control.

Turning to `CCCCCCC(CCCCCC)c1ccccc1`, the T/C reads like this: (dose: 100.0 mg/kg/injection, schedule: Q01DX001 (ip), vehicle: saline with Tween-80) 90 % of control; (dose: 200.0 mg/kg/injection, schedule: Q01DX001 (ip), vehicle: saline with Tween-80) 93 % of control.

Turning to `CN(C)CCC1(c2ccccc2)C=Cc2ccccc21` (configuration not stated), the T/C is, setting by setting: (dose: 3.12 mg/kg/injection, schedule: Q01DX009 (ip), vehicle: saline) 93 % of control; under setting [5], 97 % of control; under setting [6], 101 % of control; under setting [7], 100 % of control; under setting [8], 95 % of control.

In the case of `NC1=NC(=S)CS1`, the T/C was 97 % of control (dose: 75.0 mg/kg/injection, schedule: Q04DX003 (ip), vehicle: saline); 94 % of control (dose: 150.0 mg/kg/injection, schedule: Q04DX003 (ip), vehicle: saline); 92 % of control (dose: 300.0 mg/kg/injection, schedule: Q04DX003 (ip), vehicle: saline).

For the molecule `CCOC(=O)C(Oc1ccc([N+](=O)[O-])cc1)C(=O)OCC`, the T/C runs as follows: (dose: 100.0 mg/kg/injection, schedule: Q01DX009 (ip), vehicle: Klucel (hydroxypropylcellulose) (HPC)) 98 % of control; (dose: 200.0 mg/kg/injection, schedule: Q01DX009 (ip), vehicle: Klucel (hydroxypropylcellulose) (HPC)) 98 % of control; (dose: 400.0 mg/kg/injection, schedule: Q01DX009 (ip), vehicle: Klucel (hydroxypropylcellulose) (HPC)) 96 % of control.

`O=P(O)(O)CCC(O)CO` (configuration not stated): the T/C is 94 % of control (dose: 100.0 mg/kg/injection, schedule: Q04DX002 (ip), vehicle: saline); 97 % of control (dose: 200.0 mg/kg/injection, schedule: Q04DX002 (ip), vehicle: saline); 102 % of control (dose: 400.0 mg/kg/injection, schedule: Q04DX002 (ip), vehicle: saline).

For the molecule `O=C(NOC(=O)c1ccccc1)c1ccccc1`, the T/C is, setting by setting: (dose: 25.0 mg/kg/injection, schedule: Q04DX002 (ip), vehicle: Klucel (hydroxypropylcellulose) (HPC)) 97 % of control; (dose: 50.0 mg/kg/injection, schedule: Q04DX002 (ip), vehicle: Klucel (hydroxypropylcellulose) (HPC)) 97 % of control; (dose: 100.0 mg/kg/injection, schedule: Q04DX002 (ip), vehicle: Klucel (hydroxypropylcellulose) (HPC)) 97 % of control; under setting [9], 103 % of control; under setting [10], 91 % of control; (dose: 400.0 mg/kg/injection, schedule: Q04DX003 (ip), vehicle: saline with Tween-80) 101 % of control.

Regarding `COc1cccc(C2CCCCC2OS(=O)(=O)c2ccc(C)cc2)c1` (configuration not stated), the T/C reads like this: (dose: 100.0 mg/kg/injection, schedule: Q01DX001 (ip), vehicle: steriod suspending solution) 106 % of control; (dose: 200.0 mg/kg/injection, schedule: Q01DX001 (ip), vehicle: steriod suspending solution) 101 % of control; (dose: 400.0 mg/kg/injection, schedule: Q01DX001 (ip), vehicle: steriod suspending solution) 91 % of control.

On to `CCCCN(C)/N=N/c1nc[nH]c1C(=O)OC`, for which the T/C by setting is: (dose: 33.0 mg/kg/injection, schedule: Q01DX015 (ip), vehicle: carboxymethylcellulose (CMC)) 108 % of control; (dose: 45.0 mg/kg/injection, schedule: Q01DX015 (ip), vehicle: carboxymethylcellulose (CMC)) 117 % of control; (dose: 60.0 mg/kg/injection, schedule: Q01DX015 (ip), vehicle: carboxymethylcellulose (CMC)) 95 % of control; (dose: 75.0 mg/kg/injection, schedule: Q01DX015 (ip), vehicle: carboxymethylcellulose (CMC)) 86 % of control; under setting [2], 98 % of control; under setting [3], 104 % of control. Further, the T/C under setting [4] was 124 % of control.

In the case of `CCCCC(SC(CC)(C(N)=O)c1ccccc1)C(=O)O` (configuration not stated), the T/C under setting [2] was 90 % of control, the T/C under setting [3] was 102 % of control and the T/C under setting [4] is 90 % of control.

In the case of `O=[N+]([O-])C1=C(c2ccccc2)C(c2ccccc2)(c2ccccc2)N=N1`, the T/C is 100 % of control (dose: 100.0 mg/kg/injection, schedule: Q01DX001 (ip), vehicle: saline); 90 % of control (dose: 200.0 mg/kg/injection, schedule: Q01DX001 (ip), vehicle: saline); 88 % of control (dose: 400.0 mg/kg/injection, schedule: Q01DX001 (ip), vehicle: saline).

`CC(=O)OC1CCC2(C)C(=CCC3C2CCC2(C)C(C(C)C(O)C4C(=O)OCC4C(c4ccccc4)(c4ccccc4)c4ccccc4)CCC32)C1` (configuration not stated): the T/C is, setting by setting: (dose: 100.0 mg/kg/injection, schedule: Q04DX002 (sc), vehicle: gum acacia) 95 % of control; (dose: 200.0 mg/kg/injection, schedule: Q04DX002 (sc), vehicle: gum acacia) 95 % of control; (dose: 400.0 mg/kg/injection, schedule: Q04DX002 (sc), vehicle: gum acacia) 92 % of control.

As to `CCCN(C)N=Nc1ccccc1C(N)=O`, the T/C was 108 % of control (dose: 44.0 mg/kg/injection, schedule: Q01DX009 (ip), vehicle: saline with Tween-80); 113 % of control (dose: 50.0 mg/kg/injection, schedule: Q01DX009 (ip), vehicle: saline with Tween-80); 110 % of control (dose: 50.0 mg/kg/injection, schedule: Q04DX003 (ip), vehicle: saline with Tween-80); 108 % of control (dose: 66.0 mg/kg/injection, schedule: Q01DX009 (ip), vehicle: saline with Tween-80); 109 % of control (dose: 100.0 mg/kg/injection, schedule: Q01DX001 (ip), vehicle: other); 111 % of control under setting [9]. Also, the T/C (dose: 150.0 mg/kg/injection, schedule: Q01DX009 (ip), vehicle: saline with Tween-80) was 153 % of control; the T/C (dose: 200.0 mg/kg/injection, schedule: Q01DX001 (ip), vehicle: other) was 113 % of control; the T/C (dose: 200.0 mg/kg/injection, schedule: Q01DX009 (ip), vehicle: saline with Tween-80) is 120 % of control; the T/C under setting [10] is 118 % of control.

Regarding `NC(=N\C1=NCCO1)/C(N)=N/C1=NCCO1`, the T/C runs as follows: (dose: 100.0 mg/kg/injection, schedule: Q04DX003 (ip), vehicle: saline) 109 % of control; (dose: 200.0 mg/kg/injection, schedule: Q04DX003 (ip), vehicle: saline) 107 % of control; (dose: 400.0 mg/kg/injection, schedule: Q04DX003 (ip), vehicle: saline) 97 % of control.

For the molecule `Cc1nccnc1SC1CCCCC1`, the T/C reads like this: (dose: 100.0 mg/kg/injection, schedule: Q04DX003 (ip), vehicle: Klucel (hydroxypropylcellulose) (HPC)) 96 % of control; (dose: 200.0 mg/kg/injection, schedule: Q04DX003 (ip), vehicle: Klucel (hydroxypropylcellulose) (HPC)) 96 % of control; (dose: 400.0 mg/kg/injection, schedule: Q04DX003 (ip), vehicle: Klucel (hydroxypropylcellulose) (HPC)) 93 % of control.

On to `Nc1ncnc2c1cnn2C1OC(CO)C(O)C1O` (configuration not stated), for which the T/C by setting is: (dose: 4.1 mg/kg/injection, schedule: Q01DX009 (ip), vehicle: carboxymethylcellulose (CMC)) 97 % of control; (dose: 6.2 mg/kg/injection, schedule: Q01DX009 (ip), vehicle: carboxymethylcellulose (CMC)) 111 % of control; (dose: 9.3 mg/kg/injection, schedule: Q01DX009 (ip), vehicle: carboxymethylcellulose (CMC)) 124 % of control; (dose: 67.5 mg/kg/injection, schedule: Q01DX015 (ip), vehicle: carboxymethylcellulose (CMC)) 122 % of control; under setting [2], 111 % of control.

The values above are taken from PubChem BioAssay AID248 (DTP/NCI, 2004).
